Source: patent publication US20160016986A1, “STABILIZED NUCLEOTIDES FOR MEDICAL TREATMENT” (priority 2014, published 2016)
Where two headings read alike, the source gives them in different places.

Legend:
[1] = patients receiving high dosages of VX-135; cited from earlier work
HCV genotype 1 = conditions: cited from earlier work
[2] = human, in vivo; cited from earlier work
HCV replicon replication = experiment: Inhibition of HCV replication (HCV replicon in Huh-luc/neo cells; extrapolated to primary human hepatocytes); assay type: cell-based
[3] = Half-life of the active triphosphate in human hepatocytes; assay type: in vitro ADME; conditions: plated in 12-well format
Protocol: Human hepatocyte cells used for half-life determinations were human liver hepatocyte 12-well format cells and were seeded at 0.67 million cells per well. Canine hepatocyte cells used for half-life determinations were beagle dog liver hepatocyte 12-well format cells and were seeded at 0.67 million cells per well. Monkey hepatocyte cells used for half-life determinations were Cynomolgus monkey liver hepatocyte 12-well format cells, and were seeded at 0.9 million cells per well. Rat hepatocyte cells for half-life determinations were Sprague-Dawley (SD) rat liver hepatocyte 12-well format cells, and were seeded at 0.67 million cells per well. All cells were obtained from Life Technologies.

human hepatocytes = experiment: Determination of nucleoside concentrations (dephosphorylated 5′-OH nucleoside) in human hepatocyte media and cell extract; assay type: in vitro ADME; conditions: 20 μM Formula VII vs Formula II, 24 hours
Protocol: At 24 hours, media was removed and frozen. Cells were washed twice with cold PBS.
Supernatants were removed and analyzed by LC-MS/MS. […] Samples were centrifuged at 3000 rpm for 15 minutes. Supernatants were removed and analyzed by LC-MS/MS.
Hepatocyte media incubates were removed from the freezer, defrosted and vortexed. […] Supernatants were removed and analyzed by LC-MS/MS. […] Supernatants were removed and analyzed by LC-MS/MS.

human liver hepatocytes = experiment: Triphosphate levels in human hepatocytes after incubation with prodrug; conditions: incubation with 5 μM prodrug over 48 hours
Protocol: Fresh liver hepatocytes were received plated in a 12-well or 6-well format (Life Technologies, Catalogue #HMFN12 and #HMNF06). Upon receipt, shipping media was removed immediately and replaced with 1 mL or 2 mL pre-warmed culture medium (Supplemented modified Chee's Media; Xenotech LLC, Catalogue# K2300) for 12- and 6-well formats, respectively. Cells were acclimated overnight at 37° C. with 5% CO2 atmosphere. […] Stability of the compounds in the absence of cells was also assayed. […] Cells were washed twice with cold PBS. 70% cold Methanol (0.75 mL or 1.5 mL, for 12- and 6-well formats, respectively) containing Formula X as an internal standard was added to each well and cells were gently removed from the plate by scraping. The recovered cells suspended in the methanol solution were aspirated into a vial and frozen at −80° C.
Cell solutions were extracted overnight at −80° C. in 70% methanol, removed from the freezer, defrosted and vortexed. Tubes were centrifuged at 3000 rpm for 15 minutes at 4° C. Supernatants were removed and analyzed by LC-MS/MS. […] Supernatants were removed and analyzed by LC-MS/MS. […] The analytes were quantified using linear regression of calibration standard values with instrument response. […]
The general methods of Example 33 were used to determine compound concentrations. […] The results were plotted and the linear regression was calculated using Microsoft Excel.

HCV genotype 1, 2 or 3 = conditions: once-daily 300 mg for seven days; cited from earlier work
HCV = conditions: several large clinical trials; cited from earlier work
[4] = beagle (dog), Sprague-Dawley (rat), cynomolgus monkey, range over human, dog, monkey and rat hepatocytes, read-out: half-life of active triphosphate in hepatocytes
[5] = 6 well plate (2 ml), 1.7 million cells per well
[6] = 12 well plate (1 ml), 0.67 million cells per well

In the case of CC(C)OC(=O)[C@H](C)NP(=S)(OC[C@H]1O[C@@H](n2ccc(=O)[nH]c2=O)[C@](C)(O)[C@@H]1O)Oc1ccccc1 (single isomer, unassigned) [VX-135], the clinical toxicity finding [1] is given as “liver toxicity”, the “completion of treatment rate (SVR12)” value (HCV genotype 1; 200 mg VX-135 in combination with daclatasvir, 12 weeks of treatment) is given as 91% and the “sustained viral response rate four weeks after completion of treatment (SVR4)” value (HCV genotype 1; 200 mg VX-135 in combination with daclatasvir, treatment-naïve genotype 1, intent-to-treat) is given as 83%. The adverse event (HCV genotype 1; VX-135 in combination with daclatasvir, one patient) was “serious adverse event of vomiting/nausea”.
In the case of COc1nc(N)nc2c1ncn2[C@@H]1O[C@H](COP(=O)(N[C@@H](C)C(=O)OCC(C)(C)C)Oc2cccc3ccccc23)[C@@H](O)[C@@]1(C)O (some centres unmarked) [BMS-986094], the clinical safety outcome [2] is listed as “death of a patient due to heart failure”.
[2H]c1cn([C@@H]2O[C@H](C([2H])([2H])O[P@@](=O)(N[C@@H](C)C(=O)OC(C)C)Oc3ccccc3)[C@@H](O)[C@@]2(C)O)c(=O)[nH]c1=O [Formula II, (S)-isopropyl 2-(((S)-(((2R,3R,4R,5R)-5-(5-deutero-2,4-dioxo-3,4-dihydropyrimidin-1(2H)-yl)-3,4-dihydroxy-4-methyltetrahydrofuran-2-yl)dideuteromethoxy)(phenoxy)phosphoryl)amino)propanoate] gave an EC50 (HCV replicon replication; Hepatitis C virus, Hepatocyte, read-out: predicted EC50 in primary human hepatocytes) of 6.25 to 10 nM.
In the case of [2H]c1cn(C2OC(C([2H])([2H])OP(=O)(O)OP(=O)(O)OP(=O)(O)O)[C@@H](O)[C@@]2(C)O)c(=O)[nH]c1=O (some centres unmarked) [Formula IV], the half-life [3, 4] is reported as 10 to 30 h and the half-life ([3]; human, human hepatocytes, read-out: half-life of triphosphate) is reported as over 24 h.
For C[C@@]1(O)[C@H](O)[C@@H](CO)O[C@H]1n1ccc(=O)[nH]c1=O [Formula IX, 2′-C-methyluridine], the “higher concentration of undeuterated dephosphorylated 2′-methyl uridine compared to 5′-deuterated form (Formula VI), cell extract (intracellular)” value (human hepatocytes; [5]) was 2.8 fold, the “higher concentration of undeuterated dephosphorylated 2′-methyl uridine compared to 5′-deuterated form (Formula VI), first value, printed as cell extract” value (human hepatocytes; [5]) was 1.5 fold and the “higher concentration of undeuterated dephosphorylated 2′-methyl uridine (Formula IX) compared to 5′-deuterated form (Formula VI), cell extract (intracellular)” value (human hepatocytes; [6]) was 2.9 fold. The “higher concentration of undeuterated dephosphorylated 2′-methyl uridine (Formula IX) compared to 5′-deuterated form (Formula VI), media (extracellular)” value (human hepatocytes; [6]) was 1.9 fold.
With [2H]c1cn(C2OC(C([2H])([2H])O)[C@@H](O)[C@@]2(C)O)c(=O)[nH]c1=O (some centres unmarked) [Formula VI, 5′-deuterated 2′-C-methyluridine] the “activity against hepatitis C viral replication” value (HCV replicon replication; statement in description, poor substrate for nucleoside monophosphate kinase) was “little activity”.
With C[C@@]1(F)[C@H](O)[C@@H](COP(=O)(O)OP(=O)(O)OP(=O)(O)O)O[C@H]1n1ccc(=O)[nH]c1=O [GS-7977-TP] the “time of peak triphosphate levels in human hepatocytes” value (human liver hepatocytes) was 24 h and the half-life [3, 4] was 8 to 23 h.
For CC(C)OC(=O)[C@@H](C)N[P@@](=O)(OC[C@H]1O[C@@H](n2ccc(=O)[nH]c2=O)[C@](C)(Cl)[C@@H]1O)Oc1ccccc1 [IDX21437], the “mean maximum reduction in viral load” value (HCV genotype 1, 2 or 3) is listed as 4.2-4.3 log 10 IU/mL.
For CC(C)OC(=O)[C@H](C)N[P@](=O)(OC[C@H]1O[C@@H](n2ccc(=O)[nH]c2=O)C(C)(F)C1O)Oc1ccccc1 (some centres unmarked) [Sofosbuvir], the “sustained viral response (SVR) of twelve weeks, share of trial participants” value (HCV) is given as 50-90%.
